Values of other authors, collected in patent US8633167B2, “Method for the protection of trees” (Syngenta Crop Protection LLC, priority 2006, dated 2014).

Legend:
[1] = system: SPB; conditions: applied by Mauget Injectors; cited from earlier work
[2] = system: SPB; conditions: applied to foliage at two different rates; cited from earlier work

SMILES	egg gallery length [1]	subsequent brood production [1]	SPB larval survival [2]	effect on eggs, pupae, callow or parent adults [2]
COP(=O)(OC)O/C(C)=C/C(=O)N(C)C [dicrotophos]	significantly reduce	significantly reduce	–	–
COP(=O)(NC(C)=O)SC (stereo not shown) [acephate]	–	–	reduce	no effect
